The NIST ThermoML archive (doi:10.1016/j.jct.2015.04.015)

Details: Gas, Rotating-body viscometer developed for low-density gases

O=C=O [carbon dioxide]
Details | viscosity [mPa·s]
253.15 K, 100.2 kPa | 0.01271
253.15 K, 153 kPa | 0.01271
253.15 K, 200.5 kPa | 0.01271
253.15 K, 300.5 kPa | 0.01271
253.15 K, 401.4 kPa | 0.01272
273.17 K, 100.4 kPa | 0.01371
273.17 K, 151.8 kPa | 0.0137
273.17 K, 203.4 kPa | 0.0137
273.17 K, 301.7 kPa | 0.01371
273.17 K, 399.4 kPa | 0.01371
273.17 K, 502.8 kPa | 0.01372
298.15 K, 100.8 kPa | 0.0149
298.15 K, 150.4 kPa | 0.01491
298.15 K, 201.6 kPa | 0.0149
298.15 K, 204.6 kPa | 0.0149
298.15 K, 303.2 kPa | 0.01491
298.15 K, 303.3 kPa | 0.01491
298.15 K, 400 kPa | 0.01493
298.15 K, 402.9 kPa | 0.01492
298.15 K, 498.5 kPa | 0.01493
298.15 K, 499.7 kPa | 0.01494
298.15 K, 502.8 kPa | 0.01494
298.15 K, 604.5 kPa | 0.01494
323.16 K, 100.8 kPa | 0.01608
323.16 K, 151.6 kPa | 0.01608
323.16 K, 200.9 kPa | 0.01609
323.16 K, 304.9 kPa | 0.0161
323.16 K, 400.7 kPa | 0.0161
323.16 K, 500.4 kPa | 0.01612
323.16 K, 598.7 kPa | 0.01613
373.16 K, 100.4 kPa | 0.0184
373.16 K, 151.4 kPa | 0.0184
373.16 K, 201.1 kPa | 0.0184
373.16 K, 296.8 kPa | 0.01842
373.16 K, 399.9 kPa | 0.01843
373.16 K, 604.9 kPa | 0.01846
373.16 K, 802.6 kPa | 0.01849
423.14 K, 100.2 kPa | 0.02065
423.14 K, 153.3 kPa | 0.02066
423.14 K, 204.1 kPa | 0.02065
423.14 K, 302 kPa | 0.02066
423.14 K, 397.6 kPa | 0.02068
423.14 K, 600.4 kPa | 0.0207
423.14 K, 800.8 kPa | 0.02073
423.14 K, 998.9 kPa | 0.02077
473.15 K, 153 kPa | 0.02275
473.15 K, 202.5 kPa | 0.02277
473.15 K, 403.5 kPa | 0.02278
473.15 K, 601.1 kPa | 0.02282
473.15 K, 803 kPa | 0.02284
473.15 K, 997.8 kPa | 0.02288
473.15 K, 1200.9 kPa | 0.0229
473.16 K, 100.1 kPa | 0.02275
